# From article PMC6858848 (Bioorganic & medicinal chemistry letters, 2019)
# Legend:
# 40 targets, mostly GPCRs = conditions: 10 μM, NIMH PDSP
# [1] = cited from earlier work
# hepG2 cells = conditions: CellTiter-Glo
# hERG channels = hERG channels (Homo sapiens, UniProt Q12809); experiment: hERG thallium flux assay in HEK 293 cells; conditions: for hERG flux IC50: HEK 293 cells expressing hERG channels
# Acid stability = type: physicochemical; conditions: HPLC peak areas (254 nm) after heating at 60°C in 1:1 MeCN:0.2N aq. HCl for 24 h, 0.3 mM
# Kv7.2 channels = Kv7.2 channels (Homo sapiens, UniProt O43526); experiment: Kv7.2 thallium flux assay in HEK 293 cells; type: cell-based; conditions: for fold lower potency in Kv7.2 assay relative to DMP 543: compared with DMP 543
# Alzheimer's patients = conditions: cited from earlier work
# [2] = system: mouse model of Parkinson's disease; conditions: cited from earlier work
# ACh release = conditions: read-out: ACh release EC50; cited from earlier work
# Chain of Kv7.2 channels (O43526 whole entry): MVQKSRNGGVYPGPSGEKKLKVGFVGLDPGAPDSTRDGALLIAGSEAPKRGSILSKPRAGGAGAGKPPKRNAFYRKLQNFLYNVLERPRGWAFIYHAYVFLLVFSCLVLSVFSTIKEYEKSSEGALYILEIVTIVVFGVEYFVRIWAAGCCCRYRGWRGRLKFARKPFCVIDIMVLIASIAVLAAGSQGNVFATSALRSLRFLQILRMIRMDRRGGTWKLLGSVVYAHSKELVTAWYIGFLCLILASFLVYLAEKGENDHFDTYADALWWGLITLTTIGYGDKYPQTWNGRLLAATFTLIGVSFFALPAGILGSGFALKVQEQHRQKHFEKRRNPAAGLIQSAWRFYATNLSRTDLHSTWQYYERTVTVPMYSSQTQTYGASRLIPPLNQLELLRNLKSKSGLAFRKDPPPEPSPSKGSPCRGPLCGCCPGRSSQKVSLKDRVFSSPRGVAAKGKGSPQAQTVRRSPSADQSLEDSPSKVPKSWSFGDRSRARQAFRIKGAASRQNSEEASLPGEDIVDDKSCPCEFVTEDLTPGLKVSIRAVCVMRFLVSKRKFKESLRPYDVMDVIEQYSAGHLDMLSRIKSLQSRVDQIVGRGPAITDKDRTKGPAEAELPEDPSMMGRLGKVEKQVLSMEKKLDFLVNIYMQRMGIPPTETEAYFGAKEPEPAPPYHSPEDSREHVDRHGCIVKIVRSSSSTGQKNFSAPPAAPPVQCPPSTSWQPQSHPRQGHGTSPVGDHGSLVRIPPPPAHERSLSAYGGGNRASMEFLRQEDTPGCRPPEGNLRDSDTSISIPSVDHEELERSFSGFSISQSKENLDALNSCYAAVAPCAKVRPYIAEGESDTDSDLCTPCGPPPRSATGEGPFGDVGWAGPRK
# Chain of hERG channels (Q12809 whole entry): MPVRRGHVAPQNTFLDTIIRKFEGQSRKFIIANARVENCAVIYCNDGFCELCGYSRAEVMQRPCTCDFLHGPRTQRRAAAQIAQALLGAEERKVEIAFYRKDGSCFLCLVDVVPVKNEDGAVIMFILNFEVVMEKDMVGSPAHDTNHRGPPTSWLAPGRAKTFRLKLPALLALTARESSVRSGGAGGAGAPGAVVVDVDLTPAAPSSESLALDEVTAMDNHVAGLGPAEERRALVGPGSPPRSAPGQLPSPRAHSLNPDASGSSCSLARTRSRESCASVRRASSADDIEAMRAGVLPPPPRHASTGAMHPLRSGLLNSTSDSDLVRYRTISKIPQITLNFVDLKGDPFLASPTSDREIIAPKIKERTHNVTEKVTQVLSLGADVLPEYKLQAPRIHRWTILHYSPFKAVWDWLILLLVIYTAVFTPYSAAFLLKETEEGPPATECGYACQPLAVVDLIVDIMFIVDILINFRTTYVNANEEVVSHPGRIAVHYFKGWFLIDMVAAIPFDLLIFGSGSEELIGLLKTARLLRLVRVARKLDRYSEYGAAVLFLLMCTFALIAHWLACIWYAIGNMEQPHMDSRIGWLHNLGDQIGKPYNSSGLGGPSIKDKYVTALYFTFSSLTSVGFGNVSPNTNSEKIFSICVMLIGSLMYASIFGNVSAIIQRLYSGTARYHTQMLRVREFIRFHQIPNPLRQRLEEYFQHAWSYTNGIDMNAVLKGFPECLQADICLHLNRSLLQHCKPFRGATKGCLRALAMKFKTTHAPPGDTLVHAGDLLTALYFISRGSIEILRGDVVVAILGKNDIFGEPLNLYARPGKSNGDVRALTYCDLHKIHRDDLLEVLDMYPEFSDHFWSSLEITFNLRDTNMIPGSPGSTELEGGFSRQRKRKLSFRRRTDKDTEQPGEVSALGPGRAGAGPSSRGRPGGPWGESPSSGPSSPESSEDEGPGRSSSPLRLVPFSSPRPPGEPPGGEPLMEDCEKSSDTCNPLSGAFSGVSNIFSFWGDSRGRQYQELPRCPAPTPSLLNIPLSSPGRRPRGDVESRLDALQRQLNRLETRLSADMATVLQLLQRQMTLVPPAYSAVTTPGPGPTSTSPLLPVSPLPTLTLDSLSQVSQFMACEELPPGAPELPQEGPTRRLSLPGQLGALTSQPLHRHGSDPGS
smiles,measurement,setting,value
"O=C1c2ccccc2C(Cc2ccnc(F)c2)(Cc2ccnc(F)c2)c2ccccc21 [DMP 543, 10,10-Bis[(2-Fluoro-4-Pyridinyl)Methyl]-9(10 H)-Anthracenone]",Off-target activities: number of targets (of 40) with >30% binding,"40 targets, mostly GPCRs",6
same,aqueous solubility,[1],6 µM
same,solubility kinetic,physchem,22 µM
same,"cytotoxicity CC50, hepG2 cells",hepG2 cells,low cytotoxicity
O=C1c2ccccc2C(Cc2ccnnc2)(Cc2c(F)cncc2F)c2ccccc21 [JDP-107 (18)],Off-target activities: number of targets (of 40) with >30% binding,"40 targets, mostly GPCRs",5
same,IC50,hERG channels,> 32000 nM
same,hERG channel inhibition at 1 μM,"hERG channels; 1 μM, thallium flux",no inhibition
same,"acid stability, percent remaining",Acid stability,no degradation
same,IC50,Kv7.2 channels,180 nM
same,fold lower potency in Kv7.2 assay relative to DMP 543,Kv7.2 channels,approximately 3 fold
"O=C1N(c2ccccc2)c2ccccc2C1(Cc1ccncc1)Cc1ccncc1 [Linopirdine, 3,3-Bis(4-Pyrindinylmethyl)-1-Phenylindolin-2-One]",efficacy as cognitive enhancer in phase 3 trial,Alzheimer's patients,ineffective
same,tolerability in phase 3 trial,Alzheimer's patients,well-tolerated
"O=C1c2ccccc2C(Cc2ccncc2)(Cc2ccncc2)c2ccccc21 [XE991, 10,10-Bis(4-Pyridinylmethyl)-9(10H)-Anthracenone]",neuroprotection,[2],acts as a neuroprotective agent
same,IC50,hERG channels,> 32000 nM
same,EC50,ACh release,400 nM
O=C1c2ccccc2C(Cc2ccnc(C(F)(F)F)c2)(Cc2ccnc(C(F)(F)F)c2)c2ccccc21 [compound 5],hERG flux IC50,hERG channels; thallium flux,inactive
same,fold lower potency in Kv7.2 assay relative to DMP 543,Kv7.2 channels,~ 100 fold
O=C1c2ccccc2C(Cc2c(F)cncc2F)(Cc2c(F)cncc2F)c2ccccc21 [compound 6],"acid stability, percent remaining",Acid stability,no degradation
O=C1c2ccccc2C(Cc2ccnnc2)(Cc2ccnnc2)c2ccccc21 [compound 7],hERG flux IC50,hERG channels; thallium flux,inactive
Cc1cc(CC2(Cc3ccnc(C)c3)c3ccccc3C(=O)c3ccccc32)ccn1 [compound 8],hERG flux IC50,hERG channels; thallium flux,inactive
